Data reported in doi:10.1101/2020.06.11.145995v1 (biorxiv, 2020).
Like-named read-outs stand apart in the source and are kept apart here.

Tests used:
Assay in all cases: biochemical
MINK = MINK (Homo sapiens, UniProt Q8N4C8)
MAP3K1 = MAP3K1 (Homo sapiens, UniProt Q13233)
KIT(A829P) = KIT(A829P) (Homo sapiens, UniProt P10721, A829P)
CAMK1 = CAMK1 (Homo sapiens, UniProt Q14012)
BRSK1 = BRSK1 (Homo sapiens, UniProt Q8TDC3)
CSNK1A1L = CSNK1A1L (Homo sapiens, UniProt Q8N752)
MLK2 = MLK2 (Homo sapiens, UniProt Q02779)
CAMKK2 = CAMKK2 (Homo sapiens, UniProt Q96RR4)
FES = FES (Homo sapiens, UniProt P07332)
KIT(D816H) = KIT(D816H) (Homo sapiens, UniProt P10721, D816H)
MST1R = MST1R (Homo sapiens, UniProt Q04912)
EGFR(G719C) = EGFR(G719C) (Homo sapiens, UniProt P00533, G719C)
DRAK1 = DRAK1 (Homo sapiens, UniProt Q9UEE5)
DYRK1A = DYRK1A (Homo sapiens, UniProt Q13627)
FLT3(N841I) = FLT3(N841I) (Homo sapiens, UniProt P36888, N841I)
IRAK3 = IRAK3 (Homo sapiens, UniProt Q9Y616)
CSNK2A2 = CSNK2A2 (Homo sapiens, UniProt P19784)
BRAF(V600E) = BRAF(V600E) (Homo sapiens, UniProt P15056, V600E)
MAST1 = MAST1 (Homo sapiens, UniProt Q9Y2H9)
DYRK2 = DYRK2 (Homo sapiens, UniProt Q92630)
ANKK1 = ANKK1 (Homo sapiens, UniProt Q8NFD2)
FYN = FYN (Homo sapiens, UniProt P06241)
BMPR2 = BMPR2 (Homo sapiens, UniProt Q13873)
FLT3(K663Q) = FLT3(K663Q) (Homo sapiens, UniProt P36888, K663Q)
LRRK2 = LRRK2 (Homo sapiens, UniProt Q5S007)
FLT3 = FLT3 (Homo sapiens, UniProt P36888)
MAP4K4 = MAP4K4 (Homo sapiens, UniProt O95819)
LIMK2 = LIMK2 (Homo sapiens, UniProt P53671)
CDKL1 = CDKL1 (Homo sapiens, UniProt Q00532)
[1] = read-out: HYJ-2-002-1 (1uM) % control
[2] = read-out: CPT-1-70-1 (1uM) % control

Chain of CAMKK2 (Q96RR4 whole entry): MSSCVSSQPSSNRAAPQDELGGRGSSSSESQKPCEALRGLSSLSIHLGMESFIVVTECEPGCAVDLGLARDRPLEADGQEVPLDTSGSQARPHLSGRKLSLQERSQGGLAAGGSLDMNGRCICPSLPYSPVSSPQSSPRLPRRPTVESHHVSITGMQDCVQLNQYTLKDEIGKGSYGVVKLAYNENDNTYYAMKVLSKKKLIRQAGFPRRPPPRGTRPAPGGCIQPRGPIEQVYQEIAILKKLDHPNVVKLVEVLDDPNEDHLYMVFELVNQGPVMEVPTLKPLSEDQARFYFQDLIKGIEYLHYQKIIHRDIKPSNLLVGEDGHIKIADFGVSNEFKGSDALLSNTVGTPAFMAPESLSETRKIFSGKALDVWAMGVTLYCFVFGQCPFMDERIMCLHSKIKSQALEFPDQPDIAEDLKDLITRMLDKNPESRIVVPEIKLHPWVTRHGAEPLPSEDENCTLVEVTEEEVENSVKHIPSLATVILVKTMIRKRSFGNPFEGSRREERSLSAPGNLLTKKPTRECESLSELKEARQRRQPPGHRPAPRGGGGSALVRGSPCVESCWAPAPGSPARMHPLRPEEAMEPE
Chain of MINK (Q8N4C8 whole entry): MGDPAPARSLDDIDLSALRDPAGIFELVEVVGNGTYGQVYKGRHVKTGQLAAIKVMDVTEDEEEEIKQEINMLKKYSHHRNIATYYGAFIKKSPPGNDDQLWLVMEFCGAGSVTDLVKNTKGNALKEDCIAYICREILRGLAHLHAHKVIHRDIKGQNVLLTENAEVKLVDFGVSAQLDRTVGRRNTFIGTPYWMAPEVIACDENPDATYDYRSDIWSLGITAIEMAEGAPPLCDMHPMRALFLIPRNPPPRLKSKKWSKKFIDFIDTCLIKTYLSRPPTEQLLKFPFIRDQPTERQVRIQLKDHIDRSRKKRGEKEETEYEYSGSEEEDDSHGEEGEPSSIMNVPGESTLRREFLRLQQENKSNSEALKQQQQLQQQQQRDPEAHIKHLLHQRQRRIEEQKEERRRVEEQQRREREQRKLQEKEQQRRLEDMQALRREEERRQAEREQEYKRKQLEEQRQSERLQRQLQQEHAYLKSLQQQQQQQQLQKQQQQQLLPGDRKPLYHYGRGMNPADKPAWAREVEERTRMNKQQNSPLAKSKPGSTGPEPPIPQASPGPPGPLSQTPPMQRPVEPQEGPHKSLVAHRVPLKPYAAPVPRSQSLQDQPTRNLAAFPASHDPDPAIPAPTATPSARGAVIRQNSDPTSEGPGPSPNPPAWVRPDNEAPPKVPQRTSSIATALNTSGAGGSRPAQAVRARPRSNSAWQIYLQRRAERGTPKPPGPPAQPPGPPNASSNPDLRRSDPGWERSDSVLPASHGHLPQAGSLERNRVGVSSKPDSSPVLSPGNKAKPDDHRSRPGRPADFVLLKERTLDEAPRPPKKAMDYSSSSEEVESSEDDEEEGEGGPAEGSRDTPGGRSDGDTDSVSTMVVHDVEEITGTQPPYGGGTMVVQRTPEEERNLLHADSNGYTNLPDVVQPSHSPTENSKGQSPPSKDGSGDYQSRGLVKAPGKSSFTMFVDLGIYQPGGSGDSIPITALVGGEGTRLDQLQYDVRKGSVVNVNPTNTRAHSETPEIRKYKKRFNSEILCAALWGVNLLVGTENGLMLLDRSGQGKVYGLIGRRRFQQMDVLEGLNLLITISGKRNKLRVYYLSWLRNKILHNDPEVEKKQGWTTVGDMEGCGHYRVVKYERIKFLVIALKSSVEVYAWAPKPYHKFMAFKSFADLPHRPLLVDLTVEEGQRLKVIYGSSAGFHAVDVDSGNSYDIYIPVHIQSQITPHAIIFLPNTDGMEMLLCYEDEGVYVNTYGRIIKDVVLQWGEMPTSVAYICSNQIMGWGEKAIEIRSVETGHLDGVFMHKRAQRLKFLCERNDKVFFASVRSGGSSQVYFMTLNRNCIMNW
Chain of DYRK2 (Q92630 whole entry): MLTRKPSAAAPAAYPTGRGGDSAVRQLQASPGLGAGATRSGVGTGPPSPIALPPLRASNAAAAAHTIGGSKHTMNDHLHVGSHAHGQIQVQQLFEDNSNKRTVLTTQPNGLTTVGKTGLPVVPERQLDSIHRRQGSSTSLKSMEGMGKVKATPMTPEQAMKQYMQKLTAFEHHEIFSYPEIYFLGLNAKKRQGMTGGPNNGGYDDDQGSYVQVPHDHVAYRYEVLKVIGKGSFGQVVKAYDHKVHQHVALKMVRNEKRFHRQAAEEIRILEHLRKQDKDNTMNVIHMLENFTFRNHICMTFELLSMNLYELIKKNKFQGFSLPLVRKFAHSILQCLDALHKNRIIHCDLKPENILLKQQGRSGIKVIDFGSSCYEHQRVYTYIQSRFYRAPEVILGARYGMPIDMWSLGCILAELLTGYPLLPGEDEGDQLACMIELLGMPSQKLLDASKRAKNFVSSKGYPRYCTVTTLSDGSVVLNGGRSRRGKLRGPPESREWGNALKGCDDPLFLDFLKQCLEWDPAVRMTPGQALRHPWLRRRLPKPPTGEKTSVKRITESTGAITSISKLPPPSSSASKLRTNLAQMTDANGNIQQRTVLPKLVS
Chain of MAST1 (Q9Y2H9 whole entry): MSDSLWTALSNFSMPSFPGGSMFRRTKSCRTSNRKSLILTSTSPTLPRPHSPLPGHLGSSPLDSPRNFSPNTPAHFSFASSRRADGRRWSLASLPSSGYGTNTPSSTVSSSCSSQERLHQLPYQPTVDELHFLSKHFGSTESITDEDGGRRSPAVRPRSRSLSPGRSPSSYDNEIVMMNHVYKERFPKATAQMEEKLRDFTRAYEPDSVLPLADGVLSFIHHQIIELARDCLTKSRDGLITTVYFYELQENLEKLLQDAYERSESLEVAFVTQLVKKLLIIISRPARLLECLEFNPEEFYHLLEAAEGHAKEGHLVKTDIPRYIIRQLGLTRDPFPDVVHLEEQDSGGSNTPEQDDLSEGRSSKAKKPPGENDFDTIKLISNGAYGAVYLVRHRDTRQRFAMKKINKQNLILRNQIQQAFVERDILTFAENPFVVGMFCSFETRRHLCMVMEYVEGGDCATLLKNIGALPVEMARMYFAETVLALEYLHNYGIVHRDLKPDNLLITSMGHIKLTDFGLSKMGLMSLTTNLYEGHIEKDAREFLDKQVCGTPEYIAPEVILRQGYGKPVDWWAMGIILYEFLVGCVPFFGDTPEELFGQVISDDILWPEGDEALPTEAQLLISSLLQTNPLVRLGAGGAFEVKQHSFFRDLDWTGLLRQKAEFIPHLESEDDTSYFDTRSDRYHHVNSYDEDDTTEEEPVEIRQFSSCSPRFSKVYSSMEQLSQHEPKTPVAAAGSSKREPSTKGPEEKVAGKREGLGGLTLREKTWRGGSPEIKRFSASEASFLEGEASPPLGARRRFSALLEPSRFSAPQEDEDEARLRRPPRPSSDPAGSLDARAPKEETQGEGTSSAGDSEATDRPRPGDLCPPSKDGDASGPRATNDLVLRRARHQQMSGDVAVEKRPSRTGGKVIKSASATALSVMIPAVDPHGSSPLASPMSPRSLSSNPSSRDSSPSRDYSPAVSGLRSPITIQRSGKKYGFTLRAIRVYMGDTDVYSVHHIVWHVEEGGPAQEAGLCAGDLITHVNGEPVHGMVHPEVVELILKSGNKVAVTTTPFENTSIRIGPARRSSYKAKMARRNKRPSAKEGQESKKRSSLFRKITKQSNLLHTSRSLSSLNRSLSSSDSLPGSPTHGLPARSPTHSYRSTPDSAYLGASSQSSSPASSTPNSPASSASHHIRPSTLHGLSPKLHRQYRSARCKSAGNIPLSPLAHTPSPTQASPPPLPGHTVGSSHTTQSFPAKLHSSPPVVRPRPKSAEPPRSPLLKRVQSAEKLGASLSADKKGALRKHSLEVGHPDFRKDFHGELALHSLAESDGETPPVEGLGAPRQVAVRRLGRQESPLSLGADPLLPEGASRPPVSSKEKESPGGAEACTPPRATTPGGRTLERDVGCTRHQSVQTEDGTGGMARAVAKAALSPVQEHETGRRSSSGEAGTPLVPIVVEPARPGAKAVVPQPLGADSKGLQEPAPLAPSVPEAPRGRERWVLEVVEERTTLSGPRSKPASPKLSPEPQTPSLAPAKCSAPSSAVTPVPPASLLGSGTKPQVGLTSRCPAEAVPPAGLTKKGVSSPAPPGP
Chain of CSNK1A1L (Q8N752 whole entry): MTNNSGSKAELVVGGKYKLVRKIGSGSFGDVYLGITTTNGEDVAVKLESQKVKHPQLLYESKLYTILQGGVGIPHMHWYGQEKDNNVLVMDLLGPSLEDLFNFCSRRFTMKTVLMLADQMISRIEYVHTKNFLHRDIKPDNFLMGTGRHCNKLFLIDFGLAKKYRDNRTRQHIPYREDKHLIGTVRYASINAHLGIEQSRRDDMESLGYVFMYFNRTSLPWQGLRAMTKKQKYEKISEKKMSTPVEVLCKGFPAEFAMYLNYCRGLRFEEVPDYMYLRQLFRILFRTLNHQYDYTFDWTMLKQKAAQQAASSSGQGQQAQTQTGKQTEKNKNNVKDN
Chain of DRAK1 (Q9UEE5 whole entry): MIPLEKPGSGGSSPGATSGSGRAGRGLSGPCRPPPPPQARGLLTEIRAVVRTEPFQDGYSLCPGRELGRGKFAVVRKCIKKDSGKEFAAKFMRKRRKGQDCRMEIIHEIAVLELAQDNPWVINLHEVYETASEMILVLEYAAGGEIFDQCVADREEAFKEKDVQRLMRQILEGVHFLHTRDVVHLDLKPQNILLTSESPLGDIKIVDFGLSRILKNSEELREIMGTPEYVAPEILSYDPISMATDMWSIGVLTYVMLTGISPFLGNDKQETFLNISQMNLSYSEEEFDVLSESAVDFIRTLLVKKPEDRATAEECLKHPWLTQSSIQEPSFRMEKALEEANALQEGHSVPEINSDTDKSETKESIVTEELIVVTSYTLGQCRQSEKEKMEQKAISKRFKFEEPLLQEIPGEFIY

`CCN1CCN(Cc2ccc(NC(=O)c3ccc(C)c(CCc4cnc5[nH]ccc5c4OC)c3)cc2C(F)(F)F)CC1` [HYJ-2-002-1] was tested, and the remaining activity at 1 µM (MINK; [1]) was 33%, the remaining activity at 1 µM (MAP3K1; [1]) was 83% and the remaining activity at 1 µM (KIT(A829P); [1]) was 61%. The remaining activity at 1 µM (CAMK1; [1]) was 80%, the remaining activity at 1 µM (BRSK1; [1]) was 97% and the remaining activity at 1 µM (CSNK1A1L; [1]) was 100%. The remaining activity at 1 µM (MLK2; [1]) was 93%, the remaining activity at 1 µM (CAMKK2; [1]) was 100% and the remaining activity at 1 µM (FES; [1]) was 13%. It also gave a remaining activity at 1 µM (KIT(D816H); [1]) of 43%, a remaining activity at 1 µM (MST1R; [1]) of 100% and a remaining activity at 1 µM (EGFR(G719C); [1]) of 0.75%. For the same compound, the remaining activity at 1 µM (DRAK1; [1]) was 82%, the remaining activity at 1 µM (DYRK1A; [1]) was 62% and the remaining activity at 1 µM (FLT3(N841I); [1]) was 1.5%. It also gave a remaining activity at 1 µM (IRAK3; [1]) of 100%, a remaining activity at 1 µM (CSNK2A2; [1]) of 100% and a remaining activity at 1 µM (BRAF(V600E); [1]) of 1.2%. For the same compound, the remaining activity at 1 µM (MAST1; [1]) was 99%, the remaining activity at 1 µM (DYRK2; [1]) was 96% and the remaining activity at 1 µM (ANKK1; [1]) was 9.4%. It also gave a remaining activity at 1 µM (FYN; [1]) of 2.2%, a remaining activity at 1 µM (BMPR2; [1]) of 98% and a remaining activity at 1 µM (FLT3(K663Q); [1]) of 1.6%. For the same compound, the remaining activity at 1 µM (LRRK2; [1]) was 94%, the remaining activity at 1 µM (FLT3; [1]) was 0.5% and the remaining activity at 1 µM (MAP4K4; [1]) was 11%. It also gave a remaining activity at 1 µM (LIMK2; [1]) of 32% and a remaining activity at 1 µM (CDKL1; [1]) of 94%.

With `CN1CCN(c2ccc(Nc3nc(Oc4ccc(NC(=O)CCl)cc4)c4cc[nH]c4n3)cc2)CC1` [CPT1-70-1] the remaining activity at 1 µM (MINK; [2]) was 41%, the remaining activity at 1 µM (MAP3K1; [2]) was 100% and the remaining activity at 1 µM (KIT(A829P); [2]) was 75%. The remaining activity at 1 µM (CAMK1; [2]) was 57%, the remaining activity at 1 µM (BRSK1; [2]) was 100% and the remaining activity at 1 µM (CSNK1A1L; [2]) was 80%. The remaining activity at 1 µM (MLK2; [2]) was 56%, the remaining activity at 1 µM (CAMKK2; [2]) was 68% and the remaining activity at 1 µM (FES; [2]) was 73%. For the same compound, the remaining activity at 1 µM (KIT(D816H); [2]) was 83%, the remaining activity at 1 µM (MST1R; [2]) was 100% and the remaining activity at 1 µM (EGFR(G719C); [2]) was 8%. It also gave a remaining activity at 1 µM (DRAK1; [2]) of 14%, a remaining activity at 1 µM (DYRK1A; [2]) of 100% and a remaining activity at 1 µM (FLT3(N841I); [2]) of 1.2%. It also gave a remaining activity at 1 µM (IRAK3; [2]) of 89%, a remaining activity at 1 µM (CSNK2A2; [2]) of 28% and a remaining activity at 1 µM (BRAF(V600E); [2]) of 100%. It also gave a remaining activity at 1 µM (MAST1; [2]) of 100%, a remaining activity at 1 µM (DYRK2; [2]) of 100% and a remaining activity at 1 µM (ANKK1; [2]) of 93%. For the same compound, the remaining activity at 1 µM (FYN; [2]) was 90%, the remaining activity at 1 µM (BMPR2; [2]) was 100% and the remaining activity at 1 µM (FLT3(K663Q); [2]) was 2.4%. The remaining activity at 1 µM (LRRK2; [2]) was 7.5%, the remaining activity at 1 µM (FLT3; [2]) was 3% and the remaining activity at 1 µM (MAP4K4; [2]) was 49%. It also gave a remaining activity at 1 µM (LIMK2; [2]) of 100% and a remaining activity at 1 µM (CDKL1; [2]) of 66%.
